# Data reported in publication PMC11602988 (The Journal of Biological Chemistry, 2024).
# Changes are numbered by the printed parent chain. Like-named read-outs stand apart in the source and are kept apart here.
# Assays:
# OCT1 WT = molecular target: T1, OCT1 WT (Homo sapiens, UniProt O15245); assay: Uptake screening (transport ratio over empty vector), HEK293 cells overexpressing OCT1 WT; format: cell-based; design: expressed in transfected cells;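 also: intracellular substrate levels quantified by HPLC–tandem mass spectrometry after uptake in HBSS+ buffer at 37 °C, stable Flp-In HEK293 lines, fold change versus empty vector–transfected cells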
# T1 sequence (O15245 1-554): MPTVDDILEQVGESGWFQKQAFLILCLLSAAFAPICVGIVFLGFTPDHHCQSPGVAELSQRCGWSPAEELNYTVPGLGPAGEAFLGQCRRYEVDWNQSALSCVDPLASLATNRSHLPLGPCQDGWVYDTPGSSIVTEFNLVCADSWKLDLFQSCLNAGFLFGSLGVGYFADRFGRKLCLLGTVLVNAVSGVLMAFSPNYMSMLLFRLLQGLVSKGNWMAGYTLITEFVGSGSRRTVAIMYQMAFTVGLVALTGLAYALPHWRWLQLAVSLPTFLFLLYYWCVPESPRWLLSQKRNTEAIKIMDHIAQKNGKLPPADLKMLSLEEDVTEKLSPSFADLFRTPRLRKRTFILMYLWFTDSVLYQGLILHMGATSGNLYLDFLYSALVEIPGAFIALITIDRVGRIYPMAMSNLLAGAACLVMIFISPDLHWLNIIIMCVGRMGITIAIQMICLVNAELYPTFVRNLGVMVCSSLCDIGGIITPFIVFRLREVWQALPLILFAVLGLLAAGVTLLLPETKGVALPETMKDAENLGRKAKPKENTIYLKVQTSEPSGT
# Description: (§1) All experiments were carried out using transporter-overexpressing HEK293 cells. […] Cells were cultivated in Dulbecco’s Modified Eagle’s medium supplemented with 10% fetal calf serum, 100 U/ml penicillin, and 100 μg/ml streptomycin. Cells were passaged twice a week and kept in culture for no longer than 30 passages.
# (§2) For uptake studies, 300,000 HEK293 cells were plated in each well of 24-well plates precoated with poly-D-lysine 48 prior to the experiment. On the day of the experiment, cells were washed once with prewarmed to 37 °C HBSS+ (Hank’s balanced salt solution supplemented with 10 mM Hepes, both Sigma-Aldrich). […] Uptake was stopped by adding ice-cold HBSS+ and cells were washed twice with ice-cold buffer before cell lysis was done using 80% acetonitrile containing an appropriate internal standard for eventual mass spectrometry. Relative quantification was done by comparison of transporter-overexpressing cells to empty vector–transfected controls. For uptake kinetic experiments, cells were incubated with increasing concentrations of substrate dissolved in HBSS+. Absolute quantification was done later by comparison to a standard curve in lysis buffer with known concentration.
# (§3) Intracellular drug concentrations were detected and quantified by HPLC coupled to mass spectrometry. […] Substance-specific conditions were used to adjust the retention times of the analytes.
# (§4) Transport ratios were determined as relative fold-increase of the uptake in transporter-overexpressing cells over empty vector–transfected control cells. For transport kinetic experiments, absolute substrate quantification was done by signal comparison to a standard curve with known concentrations. Net uptake was then determined by subtracting the uptake into empty vector–transfected cells from transporter-overexpressing cells. […] Vmax defines the maximum transport velocity, Km refers to the substrate concentration required to reach half vmax. The intrinsic clearance Clint is the ratio of vmax over Km.
# OCT1 Phe244Ala variant = molecular target: T2, OCT1 Phe244Ala variant (Homo sapiens, UniProt O15245, F244A); assay: Uptake screening (transport ratio over empty vector), HEK293 cells overexpressing OCT1 Phe244Ala variant; format: cell-based; design: expressed in transfected cells;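 also: stably transfected HEK293 cells, intracellular substrate quantified by HPLC-tandem mass spectrometry in cell lysates, uptake in HBSS+ buffer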
# T2 sequence (O15245 1-554 F244A): T1 sequence (O15245 1-554) with F244A
# Description: as §1, §2, §3, §4
# [1] = uptake ratio over empty vector, HEK293 cells overexpressing OCT1 WT
# [2] = Phe244Ala uptake relative to WT
# [3] = uptake ratio over empty vector, HEK293 cells overexpressing OCT1 Phe244Ala
# [4] = uptake ratio of OCT1 WT-overexpressing HEK293 cells over empty vector
# [5] = Phe244Ala uptake relative to OCT1 WT
# [6] = uptake ratio of OCT1 Phe244Ala-overexpressing HEK293 cells over empty vector
Structure (SMILES),Mean_transport_ratio_WT (OCT1 WT; [1]),Mean_transport_ratio_Phe244Ala (OCT1 Phe244Ala variant; [3]),relative_Phe244Ala_uptake_in% (OCT1 Phe244Ala variant; [5]) [%],other results
CC[N+](CC)(CC)CC(=O)Nc1c(C)cccc1C [N-Ethyllidocaine],41.537,53.323,–,relative_Phe244Ala_uptake_in% (OCT1 Phe244Ala variant; [2]): 129.074%
CNCCc1ccc(O)cc1 [N-Methyl-p-tyramine],–,–,12.133,Mean_transport_ratio_WT (OCT1 WT; [4]): 6.673; Mean_transport_ratio_Phe244Ala (OCT1 Phe244Ala variant; [6]): 1.688
CNCCc1c[nH]c2ccc(O)cc12 [N-Methylserotonin],–,–,24.160,Mean_transport_ratio_WT (OCT1 WT; [4]): 31.114; Mean_transport_ratio_Phe244Ala (OCT1 Phe244Ala variant; [6]): 8.275
CC(C)(C)NCC(O)COc1cccc2c1CC(O)C(O)C2 (stereo not drawn) [Nadolol],–,–,142.415,Mean_transport_ratio_WT (OCT1 WT; [4]): 9.921; Mean_transport_ratio_Phe244Ala (OCT1 Phe244Ala variant; [6]): 13.705
CN(C)C(=O)Oc1cccc([N+](C)(C)C)c1 [Neostigmine],–,–,23.835,Mean_transport_ratio_WT (OCT1 WT; [4]): 51.144; Mean_transport_ratio_Phe244Ala (OCT1 Phe244Ala variant; [6]): 12.952
CNC(=C[N+](=O)[O-])NCCSCc1csc(CN(C)C)n1 [Nizatidine],–,–,10.436,Mean_transport_ratio_WT (OCT1 WT; [4]): 4.961; Mean_transport_ratio_Phe244Ala (OCT1 Phe244Ala variant; [6]): 1.413
NCC(O)c1cccc(O)c1 (stereo not drawn) [Norphenylephrine],–,–,40.709,Mean_transport_ratio_WT (OCT1 WT; [4]): 2.898; Mean_transport_ratio_Phe244Ala (OCT1 Phe244Ala variant; [6]): 1.772
CN(C)CC(c1ccc(O)cc1)C1(O)CCCCC1 (stereo not drawn) [O-Desmethylvenlafaxine],2.309,3.092,–,relative_Phe244Ala_uptake_in% (OCT1 Phe244Ala variant; [2]): 159.771%
NCC(O)c1ccc(O)cc1 (stereo not drawn) [Octopamine],–,–,54.574,Mean_transport_ratio_WT (OCT1 WT; [4]): 3.942; Mean_transport_ratio_Phe244Ala (OCT1 Phe244Ala variant; [6]): 2.606
COc1ccc(CC(C)(C)NC[C@H](O)c2cc(O)cc3c2OCC(=O)N3)cc1 [Olodaterol],6.02,7.992,139.279,–
Cc1nccn1CC1CCc2c(c3ccccc3n2C)C1=O (stereo not drawn) [Ondansetron],1.554,1.514,92.867,–
Cc1cc(C(C)(C)C)c(O)c(C)c1CC1=NCCN1 [Oxymetazoline],8.039,8.896,112.174,–
CC[N+](C)(CC)CCOC(=O)C(O)(c1ccccc1)C1CCCCC1 (stereo not drawn) [Oxyphenonium],32.636,40.516,124.905,–
COc1cc2c(cc1OC)-c1cc3ccc(OC)c(OC)c3c[n+]1CC2 [Palmatin],7.047,4.951,65.326,–
[H]/N=C(/N)N/C(=N/[H])NCCc1ccccc1 [Phenformin],29.083,32.603,112.534,–
CNC[C@H](O)c1cccc(O)c1 [Phenylephrine],9.854,3.61,29.477,–
CC(C)(C)NCC(O)c1ccc(O)c(CO)n1 (stereo not drawn) [Pirbuterol],68.047,54.212,79.364,–
CN1CCN(CC(=O)N2c3ccccc3C(=O)Nc3cccnc32)CC1 [Pirenzipin],1.911,8.32,803.892,–
CC(=O)Nc1ccc(OCC(O)CNC(C)C)cc1 (stereo not drawn) [Practolol],2.092,1.913,83.607,–

Structure (SMILES),Mean_transport_ratio_WT (OCT1 WT; [1]),Mean_transport_ratio_Phe244Ala (OCT1 Phe244Ala variant; [3]),relative_Phe244Ala_uptake_in% (OCT1 Phe244Ala variant; [5]) [%],other results
[H]/N=C(\N/C(=N/[H])Nc1ccc(Cl)cc1)NC(C)C [Proguanil],9.904,10.221,103.560,–
CC(C)[N+](C)(CCOC(=O)C1c2ccccc2Oc2ccccc21)C(C)C [Propanthelinbromid],8.263,14.937,191.888,–
CN[C@@H]1CCc2[nH]c3ccc(C(N)=O)cc3c2C1 [R-Frovatriptan],16.171,10.8,64.599,–
CC(CCc1ccc(O)cc1)NCC(O)c1ccc(O)cc1 (stereo not drawn) [Ractopamine],6.92,7.041,102.038,–
CNC(=C[N+](=O)[O-])NCCSCc1ccc(CN(C)C)o1 [Ranitidin],17.125,11.729,66.532,–
CC(NCCc1ccc(O)cc1)C(O)c1ccc(O)cc1 (stereo not drawn) [Ritodrine],8.916,12.33,143.135,–
CN(C)CCc1c[nH]c2ccc(Cn3cncn3)cc12 [Rizatriptan],7.577,2.714,26.058,–
CNCc1ccc(-c2[nH]c3cc(F)cc4c3c2CCNC4=O)cc1 [Rucaparib],2.018,2.644,161.437,–
CC(C)NC[C@H](O)COc1ccc(O)cc1 [S-Prenalterol],3.969,4.341,112.541,–
CC(C)(C)NCC(O)c1ccc(O)c(CO)c1 (stereo not drawn) [Salbutamol],8.785,12.079,142.307,–
COc1cc2c(cc1OC)[C@H](C)NCC2 [Salsolidine],1.647,1.211,32.677,–
CCN(CC)CCNC(=O)c1ccc(NS(C)(=O)=O)cc1 [Sematilid],3.577,2.352,52.483,–
CC(C)NCC(O)c1ccc(NS(C)(=O)=O)cc1 (stereo not drawn) [Sotalol],5.197,2.831,43.617,–
CNS(=O)(=O)Cc1ccc2[nH]cc(CCN(C)C)c2c1 [Sumatriptan],32.304,37.118,115.380,–
CNCC(O)c1ccc(O)cc1 (stereo not drawn) [Synephrine],8.37,4.516,47.706,–
C[N+]1(C)[C@@H]2CC(OC(=O)C(O)(c3cccs3)c3cccs3)C[C@H]1[C@@H]1O[C@@H]12 (stereo partly drawn) [Thiotropium],–,–,–,Mean_transport_ratio_WT (OCT1 WT): 34.841; Mean_transport_ratio_Phe244Ala (OCT1 Phe244Ala variant): 35.339; relative_Phe244Ala_uptake_in% (OCT1 Phe244Ala variant): 101.472%
CN1[C@@H]2CC[C@H]1C[C@@H](OC(=O)c1c[nH]c3ccccc13)C2 [Tropisetron],2.206,1.568,47.074,–
O=C(O[C@H]1C[C@H]2CC[C@@H](C1)[N+]21CCCC1)C(O)(c1ccccc1)c1ccccc1 [Trospium],27.542,29.384,106.940,–
NCCc1c[nH]c2ccccc12 [Tryptamin],2.619,1.149,9.229,–
